# Assay results taken from ChEMBL document CHEMBL4049450, “Discovery of 5-Azaindazole (GNE-955) as a Potent Pan-Pim Inhibitor with Optimized Bioavailability” (J Med Chem, 2017).
# pIC50, pKi: −log10 of the molar value.
# Key:
# [1] = Metabolic stability in dog intestinal microsomes assessed as compound remaining after 60 mins in absence of NADPH/UDPGA; type: ADME, Canis lupus familiaris, Intestine, Microsome; conditions: 1 h
# [2] = Metabolic stability in mouse intestinal microsomes assessed as compound remaining after 60 mins in presence of NADPH/UDPGA; type: ADME, Intestine, Microsome; conditions: 1 h
# [3] = Metabolic stability in cynomolgus monkey intestinal microsomes assessed as compound remaining after 60 mins in absence of NADPH/UDPGA; type: ADME, Macaca fascicularis, Intestine, Microsome; conditions: 1 h
# [4] = Metabolic stability in human intestinal microsomes assessed as compound remaining after 60 mins in presence of NADPH/UDPGA; type: ADME, Intestine, Microsome; conditions: 1 h
# [5] = Metabolic stability in rat intestinal microsomes assessed as compound remaining after 60 mins in presence of NADPH/UDPGA; type: ADME, Intestine, Microsome; conditions: for Stability: microsomes, 1 h; for remaining at 1 h: intestinal microsomes, read-out: Stability
# [6] = Metabolic stability in rat intestinal microsomes assessed as compound remaining after 60 mins in absence of NADPH/UDPGA; type: ADME, Intestine, Microsome; conditions: for Stability: microsomes, 1 h; for remaining at 1 h: intestinal microsomes, read-out: Stability
# [7] = Metabolic stability in dog intestinal microsomes assessed as compound remaining after 60 mins in presence of NADPH/UDPGA; type: ADME, Canis lupus familiaris, Intestine, Microsome; conditions: 1 h
# [8] = Metabolic stability in cynomolgus monkey intestinal microsomes assessed as compound remaining after 60 mins in presence of NADPH/UDPGA; type: ADME, Macaca fascicularis, Intestine, Microsome; conditions: 1 h
# [9] = Metabolic stability in human intestinal microsomes assessed as compound remaining after 60 mins in absence of NADPH/UDPGA; type: ADME, Intestine, Microsome; conditions: 1 h
# [10] = Metabolic stability in mouse intestinal microsomes assessed as compound remaining after 60 mins in absence of NADPH/UDPGA; type: ADME, Intestine, Microsome; conditions: 1 h
# [11] = target: Serine/threonine-protein kinase pim-2 (Homo sapiens, UniProt Q9P1W9); experiment: Inhibition of PIM2 (unknown origin) using 5FAM-ARKRRRHPSGPPTA as substrate after 90 mins in presence of ATP by caliper microfluidic mobility shift assay
# Serine/threonine-protein kinase pim-2, sequence (Q9P1W9 whole entry): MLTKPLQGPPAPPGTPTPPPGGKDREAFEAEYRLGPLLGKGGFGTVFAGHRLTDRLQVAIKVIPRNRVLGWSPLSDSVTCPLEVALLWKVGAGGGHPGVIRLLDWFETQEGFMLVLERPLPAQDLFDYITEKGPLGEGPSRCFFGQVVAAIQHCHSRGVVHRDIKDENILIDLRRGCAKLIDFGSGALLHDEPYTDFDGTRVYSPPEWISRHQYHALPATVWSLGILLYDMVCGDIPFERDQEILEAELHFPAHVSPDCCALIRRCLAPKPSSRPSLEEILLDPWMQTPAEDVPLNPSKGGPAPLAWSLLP
# [12] = target: Serine/threonine-protein kinase pim-1 (Homo sapiens, UniProt P11309); experiment: Inhibition of PIM1 (unknown origin) using 5FAM-ARKRRRHPSGPPTA as substrate after 90 mins in presence of ATP by caliper microfluidic mobility shift assay
# Serine/threonine-protein kinase pim-1, sequence (P11309 whole entry): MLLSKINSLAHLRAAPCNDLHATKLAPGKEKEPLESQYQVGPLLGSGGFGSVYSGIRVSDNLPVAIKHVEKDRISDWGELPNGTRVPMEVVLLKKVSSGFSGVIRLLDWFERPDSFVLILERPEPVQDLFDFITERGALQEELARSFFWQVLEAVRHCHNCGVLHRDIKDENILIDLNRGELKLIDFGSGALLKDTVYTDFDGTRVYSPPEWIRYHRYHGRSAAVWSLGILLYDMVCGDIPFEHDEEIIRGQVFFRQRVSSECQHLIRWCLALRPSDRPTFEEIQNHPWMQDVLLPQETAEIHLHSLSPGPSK
# [13] = Metabolic stability in rat intestinal microsomes assessed as compound remaining after 60 mins in presence of UDPGA; type: ADME, Intestine, Microsome; conditions: read-out: Stability
# [14] = target: Serine/threonine-protein kinase pim-3 (Homo sapiens, UniProt Q86V86); experiment: Inhibition of PIM3 (unknown origin) using 5FAM-ARKRRRHPSGPPTA as substrate after 90 mins in presence of ATP by caliper microfluidic mobility shift assay
# [15] = Metabolic stability in rat intestinal microsomes assessed as compound remaining after 60 mins in presence of NADPH; type: ADME, Intestine, Microsome; conditions: read-out: Stability
# [16] = Kinetic solubility of compound at pH 7.4; conditions: buffer
# [17] = Clearance in rat liver microsomes; type: ADME, microsome
# [18] = Oral bioavailability in rat at 5 mg/kg; type: ADME, organism-based; conditions: in vivo
# [19] = Clearance in rat at 1 mg/kg, iv; type: ADME, organism-based; conditions: in vivo
# [20] = Clearance in rat hepatocytes; type: ADME, cell-based, Hepatocyte
# MM1.S = experiment: Antiproliferative activity against human MM1S cells after 72 hrs by CellTiter-Glo assay; type: functional, cell-based
# [21] = Apparent permeability across apical to basolateral side in MDCK cells; type: ADME, cell-based, Canis lupus familiaris; conditions: dog
# [22] = Efflux ratio of apparent permeability in MDCK cells; conditions: dog
# Plasma = experiment: Drug level in rat plasma treated with N4-Phenylpyrimidine-2,4-diamine at 5 mg/kg, po; type: ADME, organism-based; conditions: in vivo
pKi [11],remaining at 1 h [5],pKi [12],remaining at 1 h [6],remaining at 1 h [13],pKi [14],remaining at 1 h [15],Compound,further results
–,–,–,–,–,–,–,Cn1cc(-c2cc3c(-c4cccc(N5CCC[C@@H](N)C5)n4)n[nH]c3cn2)cn1,Stability [1]: Stable; Stability [2]: Unstable; Stability [3]: Stable; Stability [4]: Stable; Stability [5]: Unstable; Stability [6]: Stable; Stability [7]: Stable; Stability [8]: Stable; Stability [9]: Stable; Stability [10]: Unstable
8.02,102%,9.30,98%,104%,9.10,100%,Cc1cncc(-c2cc3c(ccn3-c3cccc(N4CCCNCC4)n3)cn2)n1,–
–,42%,–,–,56%,–,120%,CN1CCN(c2cc3c(-c4cccc(N5CCNCC5)n4)n[nH]c3cn2)CC1=O,solubility kinetic [16]: 93.4 µM; CLhep predicted [17]: 31 mL/min/kg; Stability [6]: 130%; bioavailability [18]: 1.4%; clearance [19]: 19 mL/min/kg; CLhep predicted [20]: 18 mL/min/kg
8.52,0.4%,9.52,82%,0.4%,10.00,91%,CCn1cc(-c2cc3c(-c4cccc(N5CCN(C)CC5)n4)n[nH]c3cn2)cn1,–
9.77 to 9.96,59%,10.66 to 10.70,103%,40%,10.39 to 10.40,97%,Cc1cncc(-c2cc3c(-c4cccc(N5CCCNCC5)n4)n[nH]c3cn2)n1,solubility kinetic [16]: 38.5 µM; CLhep predicted [17]: 33 mL/min/kg; bioavailability [18]: 1.3%; pIC50 (MM1.S): 6.66; Papp A→B [21]: 3.2 ×10⁻⁶ cm/s; clearance [19]: 65 mL/min/kg; CLhep predicted [20]: 35 mL/min/kg; efflux ratio [22]: 4.9
9.32,80%,10.70,103%,81%,10.52,118%,Cc1cncc(-c2cc3c(cnn3-c3cccc(N4CCCNCC4)n3)nn2)n1,–
9.70,26%,10.40,93%,48%,10.70,34%,N[C@H]1CCCN(c2cccc(-c3n[nH]c4cnc(-c5cccnc5)cc34)n2)C1,–
6.77,102%,7.42,95%,92%,7.64,91%,Cn1cc(-c2cc3c(-c4cccc(N5CCC[C@H](N)C5)n4)nn(C)c3cn2)cn1,–
–,91%,–,91%,85%,–,99%,Cc1cncc(-c2cc3c(cn2)cnn3-c2cccc(N3CCCNCC3)n2)n1,CLhep predicted [17]: 32 mL/min/kg; bioavailability [18]: 42%; pIC50 (MM1.S): 5.30; clearance [19]: 28 mL/min/kg; CLhep predicted [20]: 27 mL/min/kg
7.74,98%,9.15,101%,91%,9.00,101%,Cc1cncc(-c2cc3c(-c4cccc(N5CCCNCC5)n4)nsc3cn2)n1,–
9.64,–,10.15,–,–,–,–,Cc1cncc(-c2cc3c(cn2)cnn3-c2cccc([C@H]3CNCCC3(F)F)n2)n1,CLhep predicted [17]: 42 mL/min/kg; bioavailability [18]: 57%; pIC50 (MM1.S): 5.92; clearance [19]: 40 mL/min/kg; CLhep predicted [20]: 31 mL/min/kg
5.13,98%,6.35,108%,103%,6.57,107%,Cc1cncc(-c2cc(F)c3cnn(-c4cccc(N5CCCNCC5)n4)c3c2)n1,–
8.10,101%,9.40,91%,100%,9.70,84%,Cc1cncc(-c2ccc3cnn(-c4cccc(N5CCCNCC5)n4)c3c2)n1,–
7.80,66%,9.30,106%,69%,9.40,111%,Cc1cncc(-c2cn3c(-c4cccc(N5CCCNCC5)n4)ncc3cn2)n1,–
6.20,62%,6.72,96%,103%,6.92,59%,Cn1nc(-c2cccc(N3CCC[C@H](N)C3)n2)c2cc(-c3cccnc3)ncc21,–
–,–,–,–,–,–,–,Cc1ccc(-c2n[nH]c3cnc(-c4cccnc4)cc23)nc1N1CC[C@@H](N)C1,Stability [1]: Stable; Stability [2]: Unstable; Stability [3]: Stable; Stability [4]: Stable; Stability [5]: Unstable; Stability [6]: Stable; Stability [7]: Stable; Stability [8]: Stable; Stability [9]: Stable; Stability [10]: Unstable
–,–,–,–,–,–,–,c1cncc(-c2cc3c(-c4cccc(N5CCCNCC5)n4)n[nH]c3cn2)c1,Stability [1]: Stable; Stability [2]: Unstable; Stability [3]: Stable; Stability [4]: Stable; Stability [5]: Unstable; Stability [6]: Stable; Stability [7]: Stable; Stability [8]: Stable; Stability [9]: Stable; Stability [10]: Unstable
8.40,0.4%,–,77%,0.2%,9.70,89%,CCn1cc(-c2cc3c(-c4cccc(N5CCOCC5)n4)n[nH]c3cn2)cn1,–
7.89,76%,9.10,87%,79%,9.40,100%,Cc1cncc(-c2cnc3cnn(-c4cccc(N5CCCNCC5)n4)c3c2)n1,–
–,–,–,–,–,–,–,c1cncc(-c2cc3c(-c4cccc(N5CCNCC5)n4)n[nH]c3cn2)c1,Stability [1]: Stable; Stability [2]: Unstable; Stability [3]: Stable; Stability [4]: Stable; Stability [5]: Unstable; Stability [6]: Stable; Stability [7]: Stable; Stability [8]: Stable; Stability [9]: Stable; Stability [10]: Unstable
–,27%,–,98%,62%,–,37%,Cc1ccc(-c2n[nH]c3cnc(-c4cccnc4)cc23)nc1N1CCC[C@H](N)C1,solubility kinetic [16]: 81.2 µM; CLhep predicted [17]: 34 mL/min/kg; bioavailability [18]: 0%; Papp A→B [21]: 3 ×10⁻⁶ cm/s; clearance [19]: 21 mL/min/kg; CLhep predicted [20]: 34 mL/min/kg; efflux ratio [22]: 1.8
–,–,–,–,–,–,–,CCn1cc(-c2cc3c(-c4cccc(N5CCC[C@@H](NC(C)=O)C5)n4)n[nH]c3cn2)cn1,Drug metabolism (Plasma): Metabolite_Detected
9.70,69%,–,87%,67%,10.70,86%,Cn1cc(-c2cc3c(-c4cccc(N5CCC[C@H](N)C5)n4)n[nH]c3cn2)cn1,–
